Key:
Conditions in all cases: treatment: drug alone; 5 days
ACHN [1] = assay: AUC of dose-response viability curve, drug alone (arbitrary (AUC of normalised viability)); higher = less growth inhibition
Procedure: (§1)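 Primary HTS: 8 RCC cell lines treated with 8 doses (up to 10 uM) of each library drug alone for 5 days; viability read by CellTiter-Glo and normalised to DMSO. GI50 was fitted with XLfit (4-parameter), AUC is the area under the dose-response curve, and minimum viability is the lowest fraction of DMSO viability across doses.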

SN12C [2] = assay: as above
Procedure: as §1

UO-31 [3] = assay: as above
Procedure: as §1

CAKI-1 [4] = assay: as above
Procedure: as §1

769-P [5] = assay: as above
Procedure: as §1

A498 [6] = assay: as above
Procedure: as §1

786-O [7] = assay: as above
Procedure: as §1

TK-10 [8] = assay: as above
Procedure: as §1

ACHN [9] = assay: GI50, drug alone; higher = less potent
Procedure: as §1

SN12C [10] = assay: GI50, drug alone; higher = less potent
Procedure: as §1

UO-31 [11] = assay: GI50, drug alone; higher = less potent
Procedure: as §1

CAKI-1 [12] = assay: GI50, drug alone; higher = less potent
Procedure: as §1

769-P [13] = assay: GI50, drug alone; higher = less potent
Procedure: as §1

A498 [14] = assay: GI50, drug alone; higher = less potent
Procedure: as §1

786-O [15] = assay: GI50, drug alone; higher = less potent
Procedure: as §1

TK-10 [16] = assay: GI50, drug alone; higher = less potent
Procedure: as §1

ACHN [17] = assay: minimum viability across doses, drug alone, relative to DMSO (fraction); higher = less growth inhibition
Procedure: as §1

SN12C [18] = assay: as above
Procedure: as §1

UO-31 [19] = assay: as above
Procedure: as §1

CAKI-1 [20] = assay: as above
Procedure: as §1

769-P [21] = assay: as above
Procedure: as §1

A498 [22] = assay: as above
Procedure: as §1

786-O [23] = assay: as above
Procedure: as §1

TK-10 [24] = assay: as above
Procedure: as §1

Compound | AUC of dose-response viability curve (ACHN [1]) | AUC of dose-response viability curve (SN12C [2]) | AUC of dose-response viability curve (UO-31 [3]) | AUC of dose-response viability curve (CAKI-1 [4]) | AUC of dose-response viability curve (769-P [5]) | AUC of dose-response viability curve (A498 [6]) | AUC of dose-response viability curve (786-O [7]) | AUC of dose-response viability curve (TK-10 [8]) | GI50, drug alone (ACHN [9]) [nM] | GI50, drug alone (SN12C [10]) [nM] | GI50, drug alone (UO-31 [11]) [nM] | GI50, drug alone (CAKI-1 [12]) [nM] | GI50, drug alone (769-P [13]) [nM] | GI50, drug alone (A498 [14]) [nM] | GI50, drug alone (786-O [15]) [nM] | GI50, drug alone (TK-10 [16]) [nM] | minimum viability across doses (ACHN [17]) | minimum viability across doses (SN12C [18]) | minimum viability across doses (UO-31 [19]) | minimum viability across doses (CAKI-1 [20]) | minimum viability across doses (769-P [21]) | minimum viability across doses (A498 [22]) | minimum viability across doses (786-O [23]) | minimum viability across doses (TK-10 [24])
CCn1c(-c2nonc2N)nc2c(C#CC(C)(C)O)ncc(OC[C@H]3CCCNC3)c21 | 3.03 | 3.06 | 3.19 | 2.74 | 3.15 | 3.82 | 1.97 | 2.59 | 9280 | > 10000 | > 10000 | 5920 | > 10000 | > 10000 | 396 | 4510 | 0.434 | 0.693 | 0.769 | 0.432 | 0.839 | 0.979 | 0.288 | 0.469
CCc1cc(Nc2nccc(-c3c(-c4ccc(OC)c(C(=O)Nc5c(F)cccc5F)c4)nc4ccccn34)n2)c(OC)cc1N1CCC(N2CCN(S(C)(=O)=O)CC2)CC1 | 3.03 | 3.17 | 5.43 | 3.12 | 3.26 | 4.54 | 3.37 | 3.23 | > 10000 | > 10000 | > 10000 | > 10000 | > 10000 | > 10000 | > 10000 | > 10000 | 0.804 | 0.858 | 1 | 0.635 | 0.828 | 1.04 | 0.785 | 0.865
C#Cc1cccc(Nc2ncnc3cc(OCCOC)c(OCCO)cc23)c1 | 2.13 | 3.24 | 4.22 | 2.93 | 2.71 | 4.38 | 2.98 | 2.39 | 472 | > 10000 | > 10000 | 2840 | 3480 | > 10000 | > 10000 | 2610 | 0.097 | 0.645 | 1.05 | 0.159 | 0.396 | 0.994 | 0.531 | 0.402
CC1(COc2ccc3c(c2)ncn3-c2ccc3cccc(N4CCC(N)CC4)c3n2)COC1 | 2.98 | 2.58 | 2.67 | 2.69 | 2.25 | 3.5 | 1.83 | 2.88 | 2730 | 2190 | 1370 | 3200 | 5050 | 3470 | 538 | 4880 | 0.0169 | 0.0442 | 0.0124 | 0.319 | 0.283 | 0.0171 | 0.00547 | 0.16
Cn1cc(C2=C(c3cn(C4CCN(Cc5ccccn5)CC4)c4ccccc34)C(=O)NC2=O)c2ccccc21 | 3.3 | 3.33 | 4.69 | 3.55 | 3.34 | 4.23 | 3.23 | 3.24 | > 10000 | > 10000 | > 10000 | > 10000 | > 10000 | > 10000 | > 10000 | > 10000 | 0.863 | 0.861 | 0.922 | 0.814 | 0.834 | 1.1 | 0.805 | 0.698
CCn1cc(-c2ccnc3[nH]c(-c4cccc(CN(C)C)c4)cc23)c(-c2ccc(NC(=O)N(C)C)cc2)n1 | 2.08 | 2.2 | 5.13 | 2.3 | 2.8 | 3.74 | 1.97 | 2.54 | 387 | 686 | 6090 | 490 | 1440 | 3070 | 84.3 | 1530 | 0.0251 | 0.0272 | 0.0615 | 0.0471 | 0.165 | 0.121 | 0.0121 | 0.0985
CCc1cnn2c(NCc3ccc[n+]([O-])c3)cc(N3CCCC[C@H]3CCO)nc12 | 0.783 | 0.716 | 0.612 | 0.874 | 1.04 | 0.65 | 0.398 | 1.15 | 17 | 14.7 | 11 | 14.7 | 29.8 | 13.6 | 6.29 | 21.8 | 0.011 | 0.0122 | 0.0105 | 0.0724 | 0.0153 | 0.00896 | 0.00554 | 0.128
C[C@@H](Oc1cc(-n2cnc3ccc(CN4CCN(C)CC4)cc32)sc1C(N)=O)c1ccccc1C(F)(F)F | 1.75 | 1.92 | 1.4 | 1.77 | 1.49 | 2.98 | 0.807 | 2.36 | 89.1 | 120 | 44.9 | 153 | 69.7 | > 10000 | 19.4 | 1340 | 0.172 | 0.234 | 0.00269 | 0.17 | 0.0562 | 0.599 | 0.00395 | 0.235
Cc1nc(Nc2ncc(C(=O)Nc3c(C)cccc3Cl)s2)cc(N2CCN(CCO)CC2)n1 | 1.52 | 2.35 | 1.93 | 1.45 | 1.7 | 3.35 | 1.9 | 1.11 | 78.5 | 2300 | 135 | 78.8 | 149 | > 10000 | 179 | 25.7 | 0.0527 | 0.377 | 0.0768 | 0.0431 | 0.0457 | 0.631 | 0.0837 | 0.0612
CNC(=O)c1c(F)cccc1Nc1nc(Nc2cc3c(cc2OC)CCN3C(=O)CN(C)C)nc2[nH]ccc12 | 2.82 | 2.88 | 4.52 | 2.94 | 2.73 | 4.86 | 2.4 | 2.69 | 3020 | 4020 | 8350 | 3460 | 2400 | 8550 | 1490 | 3140 | 0.00292 | 0.00561 | 0.0181 | 0.00594 | 0.016 | 0.0165 | 0.00507 | 0.142
